From patent publication US12398155B2, “Thienopyridinone compounds” (Janssen Pharmaceutica NV, priority 2019, dated 2025)

Assays:
[1] = system: NIH/3T3 cells overexpressing FGFR3 WT-TACC3 fusion protein; assay: NIH/3T3 FGFR3 WT-TACC3 cellular phospho-ERK assay (in vitro PD assay); assay type: cell-based; conditions: Mus musculus, NIH3T3; 1-hr incubation, AlphaLISA p-ERK1/2; read-out: NIH/3T3 FGFR3 WT-TACC3 pERK
Experimental: NIH/3T3 FGFR3 WT-TACC3 Cellular Phospho-ERK Assay (In Vitro PD Assay)
(§1) 50 μL of cell suspension (NIH/3T3 cells overexpressing FGFR3 WT-TACC3 fusion protein) (total 10,000 cells per well in growth medium (DMEM containing 1% Glutamax, 10% FBS and 1% Pen/Strep)) was seeded in a 384-well plate. After overnight incubation at 37° C. and 5% CO2, 5.5 μL of growth medium containing 10× testing compound was added into cell cultures (10 dose points with 4× serial dilution, starting with 10 μM, 0.1% DMSO final). After 1-hr incubation at 37° C. and 5% CO2, the medium was depleted and AlphaLISA SureFire Ultra p-ERKI1/2 (Thr202/Tyr204) Assay Kit (from PerkinElmer) was applied for phospho-ERK level detection according to the kit instructions. The RFUs (relative fluorescence units were measured on EnVision microplate reader (ex. 680 nm, em. 615 nm) and concentration-response curve was plotted using Prism to calculate IC50 (M), pIC50 (−log IC50) and HillSlope value.

[2] = target: T1, NIH/3T3 cells overexpressing FGFR3 WT-TACC3 fusion protein (Homo sapiens, UniProt P22607); assay: NIH/3T3 FGFR3 WT-TACC3 cell proliferation assay; assay type: cell-based; conditions: 72-hr incubation, CellTiter Glo; read-out: NIH/3T3 FGFR3 WT-TACC3 CTG
T1 construct: NIH/3T3 FGFR3 WT-TACC3 CTG; other: 72-hr incubation, CellTiter Glo; fused on or other part: C-terminal part of TACC3 (coiled-coil) fused behind the FGFR3 kinase domain; Q9Y6A5 (Transforming acidic coiled-coil-containing protein 3)
Experimental: NIH/3T3 FGFR3 WT-TACC3 Cell Proliferation Assay
In day 1, 90 μL of cell suspension (NIH/3T3 cells overexpressing FGFR3 WT-TACC3 fusion protein) (total 30,000 cells per well in growth medium (DMEM containing 1% Glutamax, 10% FBS and 1% Pen/Strep)) was seeded in a 96-well plate and then incubated overnight at 37° C. and 5% CO2. In day 2, 10 μL of growth medium containing 10-fold stock solution of testing compound was added into cell cultures (9 dose points with 4× serial dilution, starting with 10 μM, 0.1% DMSO final). After 72-hr incubation at 37° C. and 5% CO2, in day 5 a volume of 50 μL CellTiter Glo (CTG) reagent was added into cell-containing 96-well plate and the plate was incubated at room temperature for 10 minutes before RLUs (relative light unit) were measured on a microplate reader with luminescence detection module. The RLU value was normalized to survival % and concentration-response curve was plotted using Prism to calculate IC50 (M), pIC50 (−log IC50) and HillSlope value.

[3] = system: NIH/3T3 cells overexpressing FGFR3 V555M-TACC3 fusion protein; assay: NIH/3T3 FGFR3 V555M-TACC3 cellular phospho-ERK assay (in vitro PD assay); assay type: cell-based; conditions: Mus musculus, NIH3T3; 1-hr incubation, AlphaLISA p-ERK1/2; read-out: NIH/3T3 FGFR3 V555M-TACC3 pERK
Experimental: NIH/3T3 FGFR3 V555M-TACC3 Cellular Phospho-ERK Assay (In Vitro PD Assay)
as §1, with “V555M-TACC3” for “WT-TACC3”

[4] = target: T2, human FGFR3 V555L enzyme (cytoplasmic domain carrying V555L mutation) (Homo sapiens, UniProt P22607, V555L); assay: FGFR3 V555L mobility shift assay (enzymatic assay); assay type: biochemical; conditions: 40 μM ATP, 50 minutes at 30° C.; read-out: FGFR3 V555L Caliper
T2 construct: cytoplasmic domain carrying V555L mutation, from Cama Biosciences; purchased Cama Biosciences (so in the source)
Experimental: FGFR3 V555L Mobility Shift Assay (Enzymatic Assay)
(§2) In a final reaction volume of 25 μL, 0.04 ng/μL human FGFR3 V555L enzyme (cytoplasmic domain carrying V555L mutation, from Cama Biosciences) was incubated with 40 μM ATP, 1 μM FL-peptide 30 substrate and 250 nL of testing compound (1% DMSO final) in assay buffer (100 mM HEPES pH 7.4, 10 mM MgCl2, 0.003% Brij35, 1 mM DTT). After incubation for 50 minutes at 30° C. the reaction was stopped with 10 μL of 0.5M EDTA pH 8.0, and then 25 μL of reaction mixture was transferred to reading plate and measured on Caliper EZ reader II. The substrate-product conversion rate was used as raw data for normalization and concentration-response curve (10 dose points with 4× serial dilution, starting with 10 μM) was plotted using Prism to calculate IC50 (M), pIC50 (−log IC50) and HillSlope value.

[5] = target: T3, human FGFR3 V555M enzyme (cytoplasmic domain carrying V555M mutation) (Homo sapiens, UniProt P22607, V555M); assay: FGFR3 V555M mobility shift assay (enzymatic assay); assay type: biochemical; conditions: 30 μM ATP, 45 minutes at 30° C.; read-out: FGFR3 V555M Caliper
T3 construct: cytoplasmic domain carrying V555M mutation, from Cama Biosciences; purchased Cama Biosciences (so in the source)
Experimental: FGFR3 V555M Mobility Shift Assay (Enzymatic Assay)
as §2, with “FGFR3 V555M” for “FGFR3 V555L”, “carrying V555M” for “carrying V555L”, “with 30” for “with 40”, “for 45” for “for 50”

T1 sequence (P22607 whole entry, change not shown, the tested form may be a part): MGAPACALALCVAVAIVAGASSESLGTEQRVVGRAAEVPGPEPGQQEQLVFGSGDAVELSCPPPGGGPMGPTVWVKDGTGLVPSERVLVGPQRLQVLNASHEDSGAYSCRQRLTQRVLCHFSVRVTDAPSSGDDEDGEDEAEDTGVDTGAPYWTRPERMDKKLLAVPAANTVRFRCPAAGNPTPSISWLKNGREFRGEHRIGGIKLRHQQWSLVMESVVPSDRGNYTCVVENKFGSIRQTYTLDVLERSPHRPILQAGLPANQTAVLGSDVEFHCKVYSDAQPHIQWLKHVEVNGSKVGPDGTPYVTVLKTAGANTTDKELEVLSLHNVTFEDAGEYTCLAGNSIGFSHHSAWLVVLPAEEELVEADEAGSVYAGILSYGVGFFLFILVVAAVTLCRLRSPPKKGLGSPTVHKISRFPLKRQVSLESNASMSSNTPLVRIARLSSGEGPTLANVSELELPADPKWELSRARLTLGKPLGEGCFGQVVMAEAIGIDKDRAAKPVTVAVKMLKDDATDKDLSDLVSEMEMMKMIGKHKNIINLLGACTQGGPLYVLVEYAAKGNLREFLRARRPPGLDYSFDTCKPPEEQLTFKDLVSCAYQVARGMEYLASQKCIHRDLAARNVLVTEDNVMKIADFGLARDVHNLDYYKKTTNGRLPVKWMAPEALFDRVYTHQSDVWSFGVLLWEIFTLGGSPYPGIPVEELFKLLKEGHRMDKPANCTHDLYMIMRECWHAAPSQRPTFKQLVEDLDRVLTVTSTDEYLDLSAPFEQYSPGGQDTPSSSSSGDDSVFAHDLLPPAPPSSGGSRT
T2 sequence (P22607 397-806 V555L limits assumed): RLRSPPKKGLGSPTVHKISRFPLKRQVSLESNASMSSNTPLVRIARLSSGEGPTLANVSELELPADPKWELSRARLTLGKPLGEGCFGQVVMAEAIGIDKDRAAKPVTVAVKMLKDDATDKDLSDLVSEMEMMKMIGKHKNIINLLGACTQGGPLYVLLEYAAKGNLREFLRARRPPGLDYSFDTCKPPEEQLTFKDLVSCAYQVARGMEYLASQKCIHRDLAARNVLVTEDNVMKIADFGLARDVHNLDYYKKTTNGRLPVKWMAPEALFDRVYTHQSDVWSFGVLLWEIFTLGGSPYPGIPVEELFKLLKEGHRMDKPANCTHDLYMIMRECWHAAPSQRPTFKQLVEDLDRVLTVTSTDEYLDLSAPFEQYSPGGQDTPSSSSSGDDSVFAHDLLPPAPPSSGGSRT
T3 sequence (P22607 397-806 V555M limits assumed): as the sequence (P22607 397-806 V555L limits assumed) above, with L159M counted along it

GI50 [2]: 0.85 nM
IC50 [4]: 0.32 nM
IC50 [5]: 0.23 nM
SMILES: C[C@H](Nc1c(-c2nc3cnc(N4CCOCC4)cc3[nH]2)c(=O)[nH]c2ccsc12)c1ncccn1 [Compound 2, (S)-6-(6-Morpholino-1H-imidazo[4,5-c]pyridin-2-yl)-7-((1-(pyrimidin-2-yl)ethyl)amino)thieno[3,2-b]pyridin-5(4H)-one]
IC50 [1]: 1.09 nM
IC50 [3]: 1.6 nM
